Data: US6921767B2, “Cycloalkyl alkanoic acids as integrin receptor antagonists derivatives” (Pharmacia Corporation, priority 2000, dated 2005)

Test: IC50 test to confirm desired/undesired isomer (assay not specified)
Conditions: qualitative outcome only, no number given

Structure (SMILES)	tested for IC50 to confirm as desired / undesired compound (hydrochloride)	tested for IC50 to confirm as desired / undesired compound
Cl.O=C(O)CC1C(c2ccc(OCCc3ccc4c(n3)NCCC4)cc2)C1(Cl)Cl (single isomer, unassigned) [Example 85, second peak, (2,2-Dichloro-3-{4-[2-(5,6,7,8-tetrahydro-1,8-naphthyridin-2-yl)ethoxy]phenyl}cyclopropyl)acetic acid hydrochloride]	desired compound	
CN1CCNc2nc(CCOc3ccc(C4CC4CC(=O)O)cc3)ccc21 (single isomer, unassigned; (+)) [Example 81, ((+)-2-{4-[2-(1-methyl-1,2,3,4-tetrahydropyrido[2,3-b]pyrazin-^6-yl)ethoxy]phenyl}cyclopropyl)acetic acid]		desired compound
CN1CCNc2nc(CCOc3ccc(C4CC4CC(=O)O)cc3)ccc21 (single isomer, unassigned; (-)) [Example 82, ((−)-2-{4-[2-(1-methyl-1,2,3,4-tetrahydropyrido[2,3-b]pyrazin-6-yl)ethoxy]phenyl}cyclopropyl)acetic acid]		undesired compound
Cl.O=C(O)CC1C(c2ccc(OCCc3ccc4c(n3)NCCC4)cc2)C1(Cl)Cl (single isomer, unassigned) [Example 85, first peak, (2,2-Dichloro-3-{4-[2-(5,6,7,8-tetrahydro-1,8-naphthyridin-2-yl)ethoxy]phenyl}cyclopropyl)acetic acid hydrochloride]	undesired isomer	
